Measurements: ChEMBL document CHEMBL5728299, “Compounds and compositions for inhibiting the activity of SHP2” (2021)
pIC50: −log10 of the molar value.

Experiment: After 30-60 minutes incubation at 25° C., the surrogate substrate DiFMUP (Invitrogen, cat #D6567) was added to the reaction and incubated at 25° C. for 30 minutes. The reaction was then quenched by the addition of 5 μl of a 160 μM solution of bpV(Phen) (Enzo Life Sciences cat #ALX-270-204). The fluorescence signal was monitored using a microplate reader (Envision, Perki-Elmer) using excitation and emission wavelengths of 340 nm and 450 nm, respectively. The inhibitor dose response curves were analyzed using normalized IC50 regression curve fitting with control based normalization.

CC1(CN)CCN(c2nnc(Sc3cccc(NC(=O)c4cnc5ccccn5c4=O)c3Cl)c(N)n2)CC1
pIC50: 6.76
